Assay results taken from patent US9290478B2, “Substituted quinoxalines as FGFR kinase inhibitors” (ASTEX THERAPEUTICS LTD, priority 2010, dated 2016).

Experiments:
[1] = tested on: Ba/F3-FGFR3-transfected cells; assay: Ba/F3-FGFR3 (minus IL3 or plus IL3) cellular proliferation assay; format: cell-based; details: plus 10 ng/ml murine IL3 (counterscreen); for IC50: 24 h, read-out: BAF3-FGFR3 (PLUS IL3) pIC50 (converted)
Description: (§1) Ba/F3-FGFR3 (Minus IL3 or Plus IL3) (Cellular Proliferation Assay)
(§2) In a 384 well plate, 100 nI of compound dilution in DMSO was sprayed before adding 50 μl cell culture medium (phenol red free RPMI-1640, 10% FBS, 2 mM L-Glutamine and 50 μg/ml Gentamycin) containing 20000 cells per well of Ba/F3-FGFR3-transfected cells. Cells were put in an incubator at 37° C. and 5% CO2. After 24 hours, 10 μl of Alamar Blue solution (0.5 mM K3Fe(CN)6, 0.5 mM K4Fe(CN)6, 0.15 mM Resazurin and 100 mM Phosphate Buffer) was added to the wells, incubated for 4 hours at 37° C. and 5% CO2 before RFU's (Relative Fluorescence Units) (ex. 540 nm., em. 590 nm.) were measured in a fluororescence plate reader.
(§3) In this assay, the inhibitory effect of different compound concentrations (range 10 μM to 0.1 nM) was determined and used to calculate an IC50 (M) and pIC50 (−log IC50) value. As a counterscreen the same experiment was performed in the presence of 10 ng/ml murine IL3.

[2] = biological target: T1, Ba/F3-FGFR3-transfected cells (Homo sapiens, UniProt P22607); assay: as above; format: cell-based; details: minus IL3
T1 construct: BAF3-FGFR3 (MIN IL3) pIC50; other: minus IL3
T1 sequence (P22607 whole entry, change not shown): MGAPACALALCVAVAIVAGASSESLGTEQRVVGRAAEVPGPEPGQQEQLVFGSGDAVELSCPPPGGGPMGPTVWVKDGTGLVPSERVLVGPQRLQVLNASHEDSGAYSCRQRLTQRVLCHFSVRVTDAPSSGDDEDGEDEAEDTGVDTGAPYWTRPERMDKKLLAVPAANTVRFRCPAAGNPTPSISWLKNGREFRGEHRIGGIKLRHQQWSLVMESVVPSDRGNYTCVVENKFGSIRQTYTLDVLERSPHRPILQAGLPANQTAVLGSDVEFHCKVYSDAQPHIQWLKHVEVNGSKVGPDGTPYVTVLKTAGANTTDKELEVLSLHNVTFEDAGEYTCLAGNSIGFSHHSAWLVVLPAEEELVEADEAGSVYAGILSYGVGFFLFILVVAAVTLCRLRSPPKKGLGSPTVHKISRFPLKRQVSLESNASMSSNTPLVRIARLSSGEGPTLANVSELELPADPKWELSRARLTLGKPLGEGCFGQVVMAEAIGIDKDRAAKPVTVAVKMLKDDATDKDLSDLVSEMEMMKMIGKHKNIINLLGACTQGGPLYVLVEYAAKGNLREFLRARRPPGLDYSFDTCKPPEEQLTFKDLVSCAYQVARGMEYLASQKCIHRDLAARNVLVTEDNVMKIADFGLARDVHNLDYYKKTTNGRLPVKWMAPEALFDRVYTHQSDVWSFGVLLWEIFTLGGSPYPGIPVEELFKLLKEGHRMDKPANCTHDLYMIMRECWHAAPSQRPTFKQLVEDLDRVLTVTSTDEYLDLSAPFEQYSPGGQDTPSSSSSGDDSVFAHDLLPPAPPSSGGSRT
Description: as §1, §2, §3

[3] = biological target: T2, Ba/F3-KDR-transfected cells (Homo sapiens, UniProt P35968); assay: Ba/F3-KDR (minus IL3 or plus IL3) cellular proliferation assay; format: cell-based; details: minus IL3
T2 construct: BAF3-KDR (MIN IL3) pIC50; other: minus IL3
T2 sequence (P35968 whole entry, change not shown): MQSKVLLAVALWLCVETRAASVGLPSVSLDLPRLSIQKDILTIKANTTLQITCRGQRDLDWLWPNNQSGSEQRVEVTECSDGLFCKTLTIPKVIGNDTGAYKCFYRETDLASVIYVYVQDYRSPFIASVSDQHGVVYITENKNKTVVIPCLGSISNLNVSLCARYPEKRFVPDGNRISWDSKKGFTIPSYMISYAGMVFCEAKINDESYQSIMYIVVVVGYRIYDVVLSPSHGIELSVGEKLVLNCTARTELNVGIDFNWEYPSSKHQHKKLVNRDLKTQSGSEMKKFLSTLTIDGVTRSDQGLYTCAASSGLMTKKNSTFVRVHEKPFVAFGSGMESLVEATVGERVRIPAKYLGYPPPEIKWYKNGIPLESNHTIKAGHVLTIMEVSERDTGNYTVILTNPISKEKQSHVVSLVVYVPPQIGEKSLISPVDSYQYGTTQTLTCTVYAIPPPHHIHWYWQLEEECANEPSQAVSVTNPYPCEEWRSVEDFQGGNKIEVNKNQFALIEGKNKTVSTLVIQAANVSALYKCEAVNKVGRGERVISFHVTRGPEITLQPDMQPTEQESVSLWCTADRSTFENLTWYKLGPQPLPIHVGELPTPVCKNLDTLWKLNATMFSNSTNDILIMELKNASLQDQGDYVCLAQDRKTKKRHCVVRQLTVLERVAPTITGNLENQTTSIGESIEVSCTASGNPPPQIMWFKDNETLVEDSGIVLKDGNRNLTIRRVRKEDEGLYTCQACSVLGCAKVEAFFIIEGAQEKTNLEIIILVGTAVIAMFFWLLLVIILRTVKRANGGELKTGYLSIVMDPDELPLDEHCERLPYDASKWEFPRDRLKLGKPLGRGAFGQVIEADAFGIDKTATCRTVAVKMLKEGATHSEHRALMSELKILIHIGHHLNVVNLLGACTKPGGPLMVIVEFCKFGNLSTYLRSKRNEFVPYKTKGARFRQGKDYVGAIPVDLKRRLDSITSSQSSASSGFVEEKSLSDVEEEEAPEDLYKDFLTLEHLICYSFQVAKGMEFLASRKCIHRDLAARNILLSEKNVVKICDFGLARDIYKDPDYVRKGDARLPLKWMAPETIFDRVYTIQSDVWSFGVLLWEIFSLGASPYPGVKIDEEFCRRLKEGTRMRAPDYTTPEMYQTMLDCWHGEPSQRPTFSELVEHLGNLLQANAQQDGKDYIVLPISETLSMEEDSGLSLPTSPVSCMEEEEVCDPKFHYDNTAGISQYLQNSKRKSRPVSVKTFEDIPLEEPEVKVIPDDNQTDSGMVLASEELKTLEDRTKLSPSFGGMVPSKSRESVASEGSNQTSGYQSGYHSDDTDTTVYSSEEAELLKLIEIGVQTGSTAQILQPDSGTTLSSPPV
Description: (§4) Ba/F3-KDR (Minus IL3 or Plus IL3) (Cellular Proliferation Assay)
as §2, with “Ba/F3-KDR-transfected” for “Ba/F3-FGFR3-transfected”
as §3

[4] = tested on: Ba/F3-KDR-transfected cells; assay: as above; format: cell-based; details: plus 10 ng/ml murine IL3 (counterscreen); for IC50: 24 h, read-out: BAF3-KDR (PLUS IL3) pIC50 (converted)
Description: as §4
as §2, with “Ba/F3-KDR-transfected” for “Ba/F3-FGFR3-transfected”
as §3

Row | Compound | IC50 [1] [µM] | BAF3-FGFR3 (MIN IL3) pIC50 [2] | BAF3-KDR (MIN IL3) pIC50 [3] | IC50 [4] [µM] | BAF3-FGFR3 (PLUS IL3) pIC50 [1] | BAF3-KDR (PLUS IL3) pIC50 [4] | melting point [°C]
1 | COc1cc(OC)cc(C(O)(CNCCNC(C)C)c2ccc3ncc(-c4cnn(C)c4)nc3c2)c1 (single isomer, unassigned) [Compound 5] | > 10 | <5 | <5 | > 10 | – | – | –
2 | COc1cc(OC)cc(C(O)(CNCCNC(C)C)c2ccc3ncc(-c4cnn(C)c4)nc3c2)c1 (single isomer, unassigned) [Compound 6] | – | <5 | <5 | – | – | – | –
3 | COc1cc(OC)cc(C(CCNC(C)C)c2ccc3ncc(-c4cnn(C)c4)nc3c2)c1 (single isomer, unassigned) [Compound 19a] | > 10 | 6.67 | <5 | > 10 | – | – | –
4 | COc1cc(OC)cc(C(NCCNC(C)C)c2ccc3ncc(-c4cnn(C)c4)nc3c2)c1.Cl (single isomer, unassigned) [Compound 24] | > 10 | 5.29 | <5 | > 10 | – | – | –
5 | COc1cc(OC)cc(C(CCNC(C)C)c2ccc3ncc(-c4cnn(C)c4)nc3c2)c1 (single isomer, unassigned) [Compound 32a] | – | ~5.03 | <5 | – | <5 | <5 | –
6 | CNCC(O)(c1cc(OC)cc(OC)c1)c1ccc2ncc(-c3cnn(C)c3)nc2c1.Cl (single isomer, unassigned) [Compound 37] | > 10 | <5 | <5 | > 10 | – | – | 174
7 | CNCC(O)(c1cc(OC)cc(OC)c1)c1ccc2ncc(-c3cnn(C)c3)nc2c1.Cl (single isomer, unassigned) [Compound 38] | – | <5 | <5 | – | <5 | <5 | 169
8 | COc1cc(OC)cc(C(NCCNC(C)C)c2ccc3ncc(-c4cnn(C)c4)nc3c2)c1.Cl (single isomer, unassigned) [Compound 39] | – | <5 | <5 | – | <5 | <5 | –
9 | COc1cc(OC)cc(C(CCN2CCCC2=O)c2ccc3ncc(-c4cnn(C)c4)nc3c2)c1.Cl (stereo not drawn) [Compound 7] | > 10 | 5.8 | 5.13 | > 10 | – | – | –
10 | COc1cc(OC)cc(/C(=C/CNC(C)C)c2ccc3ncc(-c4cnn(C)c4)nc3c2)c1 [Compound 9] | > 10 | 6.82 | <5 | > 10 | – | – | –
11 | COc1cc(OC)cc(/C(=C\CNCC(F)(F)F)c2ccc3ncc(-c4cnn(C)c4)nc3c2)c1 [Compound 14, {(Z)-3-(3,5-Dimethoxy-phenyl)-3-[3-(1-methyl-1H-pyrazol-4-yl)-quinoxalin-6-yl]-allyl}-(2,2,2-trifluoro-ethyl)-amine] | > 10 | 6.39 | <5 | > 10 | – | – | –
12 | COc1cc(OC)cc(C(CCN(C)C)c2ccc3ncc(-c4cnn(C)c4)nc3c2)c1.Cl (stereo not drawn) [Compound 21] | > 10 | 6.32 | <5 | > 10 | – | – | –
13 | COc1cc(OC)cc(C(CC(C)(O)CNC(C)C)c2ccc3ncc(-c4cnn(C)c4)nc3c2)c1.Cl (stereo not drawn) [Compound 25] | > 10 | 5.13 | <5 | > 10 | – | – | –
14 | Cn1cc(-c2cnc3ccc(C(O)c4ccccc4)cc3n2)cn1 (stereo not drawn) [Compound 28] | > 10 | <5 | <5 | > 10 | – | – | –
15 | CN(C)CCC(c1ccccc1)c1ccc2ncc(-c3cnn(C)c3)nc2c1 (stereo not drawn) [Compound 35] | > 10 | <5 | <5 | > 10 | – | – | –
